Assay results taken from the kinase profiling compilation of Christmann-Franck et al. (2016).

Tests used:
Assay in all cases: radiometric filter-binding kinase assay, Kinase HotSpot
Settings in all cases: compound 0.5 µM; ATP 10 µM
AKT1 (human) = AKT1 (human) (UniProt P31749)
CAMK1 (human) = CAMK1 (human) (UniProt Q14012)
CAMK1D (human) = CAMK1D (human) (UniProt Q8IU85)
CAMK2A (human) = CAMK2A (human) (UniProt Q9UQM7)
CAMK2B (human) = CAMK2B (human) (UniProt Q13554)
CDC42BPA (human) = CDC42BPA (human) (UniProt Q5VT25)
CDK1 CCNB1 (human) = CDK1 CCNB1 (human) (UniProt P06493+P14635)
CDK2 CCNA2 (human) = CDK2 CCNA2 (human) (UniProt P24941+P20248)
CSNK1E (human) = CSNK1E (human) (UniProt P49674)
CSNK1G2 (human) = CSNK1G2 (human) (UniProt P78368)
CSNK2A1 (human) = CSNK2A1 (human) (UniProt P68400)
EPHA5 (human) = EPHA5 (human) (UniProt P54756)
EPHA7 (human) = EPHA7 (human) (UniProt Q15375)
EPHB1 (human) = EPHB1 (human) (UniProt P54762)
EPHB4 (human) = EPHB4 (human) (UniProt P54760)
FES (human) = FES (human) (UniProt P07332)
FGFR1 (human) = FGFR1 (human) (UniProt P11362)
FGFR4 (human) = FGFR4 (human) (UniProt P22455)
GRK5 (human) = GRK5 (human) (UniProt P34947)
IGF1R (human) = IGF1R (human) (UniProt P08069)
INSR (human) = INSR (human) (UniProt P06213)
INSRR (human) = INSRR (human) (UniProt P14616)
MAP3K10 (human) = MAP3K10 (human) (UniProt Q02779)
MAP3K8 (human) = MAP3K8 (human) (UniProt P41279)
MAPK12 (human) = MAPK12 (human) (UniProt P53778)
MAPK8 (human) = MAPK8 (human) (UniProt P45983)
MAPKAPK3 (human) = MAPKAPK3 (human) (UniProt Q16644)
MATK (human) = MATK (human) (UniProt P42679)
PAK2 (human) = PAK2 (human) (UniProt Q13177)
PIM3 (human) = PIM3 (human) (UniProt Q86V86)
PKN1 (human) = PKN1 (human) (UniProt Q16512)
PLK2 (human) = PLK2 (human) (UniProt Q9NYY3)
PRKCG (human) = PRKCG (human) (UniProt P05129)
RPS6KA4 KD2 (human) = RPS6KA4 KD2 (human) (UniProt O75676)
SRPK3 (human) = SRPK3 (human) (UniProt Q9UPE1)
STK11 (human) = STK11 (human) (UniProt Q15831)
TAOK3 (human) = TAOK3 (human) (UniProt Q9H2K8)
TNK2 (human) = TNK2 (human) (UniProt Q07912)
[1] = target: TYK2 JH1 catalytic (human) (UniProt P29597)
WNK3 (human) = WNK3 (human) (UniProt Q9BYP7)
ZAP70 (human) = ZAP70 (human) (UniProt P43403)
TAOK1 (human) = TAOK1 (human) (UniProt Q7L7X3)

Chain of TYK2 JH1 catalytic (human) (P29597 whole entry, looked up): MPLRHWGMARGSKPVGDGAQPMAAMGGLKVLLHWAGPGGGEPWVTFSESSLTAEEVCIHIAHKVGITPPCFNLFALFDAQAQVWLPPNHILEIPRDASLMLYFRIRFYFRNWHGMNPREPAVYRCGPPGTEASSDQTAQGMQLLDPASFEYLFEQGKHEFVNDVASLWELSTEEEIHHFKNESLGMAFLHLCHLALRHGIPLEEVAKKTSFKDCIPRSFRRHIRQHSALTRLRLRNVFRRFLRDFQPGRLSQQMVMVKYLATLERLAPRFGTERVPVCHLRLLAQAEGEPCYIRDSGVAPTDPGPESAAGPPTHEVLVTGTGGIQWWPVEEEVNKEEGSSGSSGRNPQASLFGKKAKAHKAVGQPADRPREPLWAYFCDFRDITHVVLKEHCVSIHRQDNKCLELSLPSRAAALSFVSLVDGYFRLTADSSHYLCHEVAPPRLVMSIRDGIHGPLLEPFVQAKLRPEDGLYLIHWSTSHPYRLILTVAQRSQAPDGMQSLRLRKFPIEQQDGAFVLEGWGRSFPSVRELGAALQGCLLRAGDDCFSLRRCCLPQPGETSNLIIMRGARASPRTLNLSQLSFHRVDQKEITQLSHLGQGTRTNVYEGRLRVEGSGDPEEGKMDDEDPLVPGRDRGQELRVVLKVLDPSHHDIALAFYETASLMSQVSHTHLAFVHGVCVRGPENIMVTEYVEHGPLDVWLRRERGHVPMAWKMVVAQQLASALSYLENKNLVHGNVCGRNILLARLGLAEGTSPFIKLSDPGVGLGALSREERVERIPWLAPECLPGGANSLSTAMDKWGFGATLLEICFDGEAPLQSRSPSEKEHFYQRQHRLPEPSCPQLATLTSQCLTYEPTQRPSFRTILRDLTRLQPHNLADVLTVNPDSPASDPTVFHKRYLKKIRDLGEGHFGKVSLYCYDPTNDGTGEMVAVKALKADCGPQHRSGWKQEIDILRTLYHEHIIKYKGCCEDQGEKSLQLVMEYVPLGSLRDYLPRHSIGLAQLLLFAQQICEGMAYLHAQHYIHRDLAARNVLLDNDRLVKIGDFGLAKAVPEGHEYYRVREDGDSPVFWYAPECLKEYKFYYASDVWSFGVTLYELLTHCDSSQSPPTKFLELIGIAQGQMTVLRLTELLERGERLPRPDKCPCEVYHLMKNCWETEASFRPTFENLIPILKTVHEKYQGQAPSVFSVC
Chain of CSNK2A1 (human) (P68400 whole entry, looked up): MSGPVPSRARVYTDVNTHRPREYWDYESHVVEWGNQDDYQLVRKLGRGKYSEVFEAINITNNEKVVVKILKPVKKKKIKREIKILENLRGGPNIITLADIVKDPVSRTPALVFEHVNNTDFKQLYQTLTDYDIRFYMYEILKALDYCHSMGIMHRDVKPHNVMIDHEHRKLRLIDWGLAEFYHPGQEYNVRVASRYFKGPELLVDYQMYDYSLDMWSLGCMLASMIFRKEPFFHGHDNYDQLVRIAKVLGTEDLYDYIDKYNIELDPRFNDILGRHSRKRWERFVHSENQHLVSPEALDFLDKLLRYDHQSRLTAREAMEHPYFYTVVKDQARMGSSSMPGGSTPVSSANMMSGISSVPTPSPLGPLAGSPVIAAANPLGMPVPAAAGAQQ
Chain of INSR (human) (P06213 whole entry, looked up): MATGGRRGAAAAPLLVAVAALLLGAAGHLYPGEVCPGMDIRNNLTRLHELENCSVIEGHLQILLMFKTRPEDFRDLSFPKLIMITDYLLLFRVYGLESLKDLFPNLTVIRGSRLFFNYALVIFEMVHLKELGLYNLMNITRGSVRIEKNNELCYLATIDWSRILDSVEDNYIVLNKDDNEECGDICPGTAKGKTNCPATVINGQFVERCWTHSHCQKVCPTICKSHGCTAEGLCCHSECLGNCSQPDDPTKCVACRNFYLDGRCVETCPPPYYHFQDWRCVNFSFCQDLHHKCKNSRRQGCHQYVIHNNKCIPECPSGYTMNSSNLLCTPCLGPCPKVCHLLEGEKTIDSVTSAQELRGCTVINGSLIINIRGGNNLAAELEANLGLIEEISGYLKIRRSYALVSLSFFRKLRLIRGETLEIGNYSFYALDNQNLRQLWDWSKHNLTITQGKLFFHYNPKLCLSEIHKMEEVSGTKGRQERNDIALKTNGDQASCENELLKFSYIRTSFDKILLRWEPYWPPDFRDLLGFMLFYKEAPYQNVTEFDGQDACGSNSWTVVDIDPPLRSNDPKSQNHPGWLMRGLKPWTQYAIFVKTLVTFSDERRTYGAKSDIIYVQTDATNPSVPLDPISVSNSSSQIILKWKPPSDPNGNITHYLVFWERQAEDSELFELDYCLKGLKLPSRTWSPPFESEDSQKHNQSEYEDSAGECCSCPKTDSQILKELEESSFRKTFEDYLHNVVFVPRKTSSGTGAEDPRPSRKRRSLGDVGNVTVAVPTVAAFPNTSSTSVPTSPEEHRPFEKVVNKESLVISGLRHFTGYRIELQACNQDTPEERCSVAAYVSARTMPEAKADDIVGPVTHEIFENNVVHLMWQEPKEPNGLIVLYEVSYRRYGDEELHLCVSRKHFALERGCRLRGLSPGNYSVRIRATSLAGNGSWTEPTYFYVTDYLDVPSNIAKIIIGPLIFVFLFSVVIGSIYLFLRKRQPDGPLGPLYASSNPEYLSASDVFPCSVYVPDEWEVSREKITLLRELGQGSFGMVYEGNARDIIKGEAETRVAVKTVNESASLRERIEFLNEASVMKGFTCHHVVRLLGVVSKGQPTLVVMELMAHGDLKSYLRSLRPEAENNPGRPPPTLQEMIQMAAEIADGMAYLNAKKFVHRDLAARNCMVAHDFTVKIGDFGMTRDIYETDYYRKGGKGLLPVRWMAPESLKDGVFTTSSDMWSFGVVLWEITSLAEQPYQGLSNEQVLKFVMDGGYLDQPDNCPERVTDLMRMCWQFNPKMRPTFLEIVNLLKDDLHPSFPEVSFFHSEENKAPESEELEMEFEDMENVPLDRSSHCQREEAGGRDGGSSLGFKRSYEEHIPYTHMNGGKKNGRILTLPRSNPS
Chain of FGFR4 (human) (P22455 whole entry, looked up): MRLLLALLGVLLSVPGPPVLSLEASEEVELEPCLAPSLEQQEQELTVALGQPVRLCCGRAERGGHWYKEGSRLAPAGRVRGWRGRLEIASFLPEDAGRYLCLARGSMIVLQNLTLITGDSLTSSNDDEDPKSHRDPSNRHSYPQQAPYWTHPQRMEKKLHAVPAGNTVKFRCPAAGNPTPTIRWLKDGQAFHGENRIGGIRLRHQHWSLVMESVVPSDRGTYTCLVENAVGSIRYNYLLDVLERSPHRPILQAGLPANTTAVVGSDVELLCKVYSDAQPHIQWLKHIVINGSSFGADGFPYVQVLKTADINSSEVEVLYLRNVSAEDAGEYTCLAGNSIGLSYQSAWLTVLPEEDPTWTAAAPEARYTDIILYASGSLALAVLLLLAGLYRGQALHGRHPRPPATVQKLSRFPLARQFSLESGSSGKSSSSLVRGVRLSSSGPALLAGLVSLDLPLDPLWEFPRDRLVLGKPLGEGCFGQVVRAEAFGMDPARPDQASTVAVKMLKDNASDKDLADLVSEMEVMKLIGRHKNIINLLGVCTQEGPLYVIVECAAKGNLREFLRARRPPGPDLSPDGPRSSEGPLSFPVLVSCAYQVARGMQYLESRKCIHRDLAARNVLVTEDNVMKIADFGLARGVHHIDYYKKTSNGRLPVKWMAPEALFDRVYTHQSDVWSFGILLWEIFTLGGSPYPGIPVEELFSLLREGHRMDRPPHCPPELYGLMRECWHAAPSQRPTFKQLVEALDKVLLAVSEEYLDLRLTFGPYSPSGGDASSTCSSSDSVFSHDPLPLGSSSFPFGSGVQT
Chain of EPHB1 (human) (P54762 whole entry, looked up): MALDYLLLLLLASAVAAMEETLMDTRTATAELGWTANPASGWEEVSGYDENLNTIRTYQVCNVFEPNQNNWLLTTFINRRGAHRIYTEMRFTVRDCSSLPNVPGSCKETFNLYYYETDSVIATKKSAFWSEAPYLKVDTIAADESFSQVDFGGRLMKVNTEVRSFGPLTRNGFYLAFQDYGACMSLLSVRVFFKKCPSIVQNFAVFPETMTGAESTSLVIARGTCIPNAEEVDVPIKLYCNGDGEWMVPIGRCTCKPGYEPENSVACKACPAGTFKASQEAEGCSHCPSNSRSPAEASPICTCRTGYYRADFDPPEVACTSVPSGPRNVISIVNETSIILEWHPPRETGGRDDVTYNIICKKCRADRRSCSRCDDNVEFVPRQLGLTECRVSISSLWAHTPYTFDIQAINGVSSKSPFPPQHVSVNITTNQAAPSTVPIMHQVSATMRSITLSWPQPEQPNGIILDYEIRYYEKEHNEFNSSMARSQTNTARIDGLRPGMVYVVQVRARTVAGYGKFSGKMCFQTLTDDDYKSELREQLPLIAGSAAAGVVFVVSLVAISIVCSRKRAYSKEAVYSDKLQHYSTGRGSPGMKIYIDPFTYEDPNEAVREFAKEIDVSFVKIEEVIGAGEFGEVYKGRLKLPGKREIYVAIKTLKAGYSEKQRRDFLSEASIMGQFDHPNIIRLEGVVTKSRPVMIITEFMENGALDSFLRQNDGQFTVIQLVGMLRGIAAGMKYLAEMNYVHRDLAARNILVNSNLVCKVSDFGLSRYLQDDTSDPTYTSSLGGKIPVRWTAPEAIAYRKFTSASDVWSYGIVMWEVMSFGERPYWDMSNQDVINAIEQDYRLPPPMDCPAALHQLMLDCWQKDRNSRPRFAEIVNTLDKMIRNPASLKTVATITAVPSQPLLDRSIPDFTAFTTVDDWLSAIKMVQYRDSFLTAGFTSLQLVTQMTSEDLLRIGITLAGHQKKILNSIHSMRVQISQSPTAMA

How did the residual activity (AKT1 (human)) turn out when `c1ccc(-c2cnc(Nc3ccc(OCCN4CCCC4)cc3)s2)cc1` was run?
Its residual activity is 101%.

What about the residual activity (CAMK1 (human)) of the same molecule?
The residual activity was 86.3%.

And the residual activity (CAMK1D (human))?
Its residual activity is 101%.

And the residual activity (CAMK2A (human))?
The residual activity was 62.9%.

And the residual activity (CAMK2B (human))?
Its residual activity is 84.2%.

And the residual activity (CDC42BPA (human))?
The residual activity was 91%.

And the residual activity (CDK1 CCNB1 (human))?
Its residual activity is 85.1%.

And the residual activity (CDK2 CCNA2 (human))?
The residual activity was 85.2%.

What about the residual activity (CSNK1E (human)) of the same molecule?
Its residual activity is 81.2%.

And the residual activity (CSNK1G2 (human))?
The residual activity was 100%.

What about the residual activity (CSNK2A1 (human)) of the same molecule?
The residual activity was 90.7%.

What about the residual activity (EPHA5 (human)) of the same molecule?
Its residual activity is 97%.

What about the residual activity (EPHA7 (human)) of the same molecule?
Its residual activity is 98%.

What about the residual activity (EPHB1 (human)) of the same molecule?
The residual activity was 95.4%.

And the residual activity (EPHB4 (human))?
Its residual activity is 91.9%.

And the residual activity (FES (human))?
Its residual activity is 93.2%.

What about the residual activity (FGFR1 (human)) of the same molecule?
Its residual activity is 75.4%.

What about the residual activity (FGFR4 (human)) of the same molecule?
The residual activity was 95.6%.

What about the residual activity (GRK5 (human)) of the same molecule?
Its residual activity is 99.4%.

And the residual activity (IGF1R (human))?
The residual activity was 112%.

What about the residual activity (INSR (human)) of the same molecule?
The residual activity was 95%.

What about the residual activity (INSRR (human)) of the same molecule?
Its residual activity is 99.6%.

What about the residual activity (MAP3K10 (human)) of the same molecule?
Its residual activity is 95.7%.

What about the residual activity (MAP3K8 (human)) of the same molecule?
The residual activity was 97.2%.

And the residual activity (MAPK12 (human))?
Its residual activity is 93.6%.

And the residual activity (MAPK8 (human))?
Its residual activity is 92.4%.

What about the residual activity (MAPKAPK3 (human)) of the same molecule?
The residual activity was 97.6%.

What about the residual activity (MATK (human)) of the same molecule?
Its residual activity is 94.3%.

And the residual activity (PAK2 (human))?
Its residual activity is 94.8%.

What about the residual activity (PIM3 (human)) of the same molecule?
Its residual activity is 120%.

And the residual activity (PKN1 (human))?
Its residual activity is 94.8%.

And the residual activity (PLK2 (human))?
The residual activity was 105%.

What about the residual activity (PRKCG (human)) of the same molecule?
Its residual activity is 92.5%.

And the residual activity (RPS6KA4 KD2 (human))?
The residual activity was 96.1%.

And the residual activity (SRPK3 (human))?
The residual activity was 98.2%.

What about the residual activity (STK11 (human)) of the same molecule?
Its residual activity is 103%.

What about the residual activity (TAOK3 (human)) of the same molecule?
Its residual activity is 87.4%.

And the residual activity (TNK2 (human))?
Its residual activity is 66.6%.

And the residual activity [1]?
Its residual activity is 106%.

What about the residual activity (WNK3 (human)) of the same molecule?
The residual activity was 99%.

And the residual activity (ZAP70 (human))?
The residual activity was 105%.

With `FC(F)(F)c1ccc(/C=C/c2nc(COc3ccc(CCCCn4ccnn4)cc3)co2)cc1` as the molecule, how does the residual activity (AKT1 (human)) read?
Its residual activity is 93.2%.

And the residual activity (CAMK1 (human))?
The residual activity was 105%.

And the residual activity (CAMK1D (human))?
The residual activity was 109%.

What about the residual activity (CAMK2A (human)) of the same molecule?
Its residual activity is 101%.

And the residual activity (CAMK2B (human))?
The residual activity was 99.3%.

What about the residual activity (CDC42BPA (human)) of the same molecule?
Its residual activity is 103%.

And the residual activity (CDK1 CCNB1 (human))?
Its residual activity is 93.8%.

What about the residual activity (CDK2 CCNA2 (human)) of the same molecule?
Its residual activity is 87.9%.

What about the residual activity (CSNK1E (human)) of the same molecule?
The residual activity was 95.5%.

What about the residual activity (CSNK1G2 (human)) of the same molecule?
The residual activity was 96.7%.

And the residual activity (CSNK2A1 (human))?
Its residual activity is 97.5%.

And the residual activity (EPHA5 (human))?
The residual activity was 99.9%.

What about the residual activity (EPHA7 (human)) of the same molecule?
The residual activity was 95.2%.

What about the residual activity (EPHB1 (human)) of the same molecule?
The residual activity was 99.4%.

What about the residual activity (EPHB4 (human)) of the same molecule?
The residual activity was 92.2%.

And the residual activity (FES (human))?
Its residual activity is 102%.

And the residual activity (FGFR1 (human))?
The residual activity was 101%.

And the residual activity (FGFR4 (human))?
The residual activity was 88.3%.

And the residual activity (GRK5 (human))?
The residual activity was 109%.

What about the residual activity (IGF1R (human)) of the same molecule?
The residual activity was 101%.

What about the residual activity (INSR (human)) of the same molecule?
Its residual activity is 99.6%.

What about the residual activity (INSRR (human)) of the same molecule?
The residual activity was 101%.

And the residual activity (MAP3K10 (human))?
Its residual activity is 98.9%.

And the residual activity (MAP3K8 (human))?
The residual activity was 90.8%.

And the residual activity (MAPK12 (human))?
Its residual activity is 98.3%.

And the residual activity (MAPK8 (human))?
The residual activity was 105%.

And the residual activity (MAPKAPK3 (human))?
Its residual activity is 98.9%.

And the residual activity (MATK (human))?
Its residual activity is 95%.

What about the residual activity (PAK2 (human)) of the same molecule?
Its residual activity is 113%.

What about the residual activity (PIM3 (human)) of the same molecule?
Its residual activity is 107%.

What about the residual activity (PKN1 (human)) of the same molecule?
The residual activity was 97%.

And the residual activity (PLK2 (human))?
Its residual activity is 99.7%.

What about the residual activity (PRKCG (human)) of the same molecule?
Its residual activity is 95.2%.

And the residual activity (RPS6KA4 KD2 (human))?
Its residual activity is 105%.

What about the residual activity (SRPK3 (human)) of the same molecule?
Its residual activity is 104%.

And the residual activity (STK11 (human))?
Its residual activity is 104%.

And the residual activity (TAOK1 (human))?
Its residual activity is 102%.

And the residual activity (TAOK3 (human))?
The residual activity was 93%.

And the residual activity [1]?
The residual activity was 99.1%.

What about the residual activity (WNK3 (human)) of the same molecule?
The residual activity was 98.5%.

And the residual activity (ZAP70 (human))?
The residual activity was 115%.
